Patent US8232406B2, “c-MET protein kinase inhibitors” (Vertex Pharmaceuticals Incorporated, priority 2006, dated 2012)

Target: c-MET (Homo sapiens, UniProt P08581)
Experiment: Ki determination for the inhibition of c-MET (standard radiometric 33P-ATP kinase assay, polyE4Y substrate)
Format: biochemical
Settings: 1.0 nM c-Met, 35 μM ATP, 0.5 mg/mL polyE4Y, 20 min; competitive tight-binding fit
Description: Ki Determination for the Inhibition of c-MET
Compounds of the invention were screened for their ability to inhibit c-MET kinase activity using a standard radiometric assay. Briefly, in this kinase assay the transfer of the terminal ^33P-phosphate in ^33P-ATP to substrate polyE4Y is interrogated. The assay was carried out in 96-well plates to a final volume of 100 μL per well containing 1.0 nM c-Met, 100 mM HEPES (pH 7.5), 10 mM MgCl2, 25 mM NaCl, 0.01% BSA, 1 mM DTT, 0.5 mg/mL polyE4Y, and 35 μM ATP. Accordingly, compounds of the invention were dissolved in DMSO to make 10 mM initial stock solutions. Serial dilutions in DMSO were then made to obtain the final solutions for the assay. A 1.5 μL aliquot of DMSO or inhibitor in DMSO was added to each well. The reaction was initiated by the addition of ^33P-ATP and polyE4Y (obtained from Sigma). After 20 min, the reaction was quenched with 50 μL of 30% trichloroacetic acid (TCA) containing 4 mM ATP. The reaction mixture was transferred to the 0.66 mm GF filter plates (Corning) and washed three times with 5% TCA. Following the addition of 50 μL of Ultimate Gold™ high efficiency scintillant (Packard Bioscience), the samples were counted in a Packard TopCount NXT Microplate Scintillation and Luminescence Counter (Packard BioScience). The Ki values were calculated using Microsoft Excel Solver macros to fit the data to the kinetic model for competitive tight-binding inhibition.

Chain of c-MET (P08581 25-1390): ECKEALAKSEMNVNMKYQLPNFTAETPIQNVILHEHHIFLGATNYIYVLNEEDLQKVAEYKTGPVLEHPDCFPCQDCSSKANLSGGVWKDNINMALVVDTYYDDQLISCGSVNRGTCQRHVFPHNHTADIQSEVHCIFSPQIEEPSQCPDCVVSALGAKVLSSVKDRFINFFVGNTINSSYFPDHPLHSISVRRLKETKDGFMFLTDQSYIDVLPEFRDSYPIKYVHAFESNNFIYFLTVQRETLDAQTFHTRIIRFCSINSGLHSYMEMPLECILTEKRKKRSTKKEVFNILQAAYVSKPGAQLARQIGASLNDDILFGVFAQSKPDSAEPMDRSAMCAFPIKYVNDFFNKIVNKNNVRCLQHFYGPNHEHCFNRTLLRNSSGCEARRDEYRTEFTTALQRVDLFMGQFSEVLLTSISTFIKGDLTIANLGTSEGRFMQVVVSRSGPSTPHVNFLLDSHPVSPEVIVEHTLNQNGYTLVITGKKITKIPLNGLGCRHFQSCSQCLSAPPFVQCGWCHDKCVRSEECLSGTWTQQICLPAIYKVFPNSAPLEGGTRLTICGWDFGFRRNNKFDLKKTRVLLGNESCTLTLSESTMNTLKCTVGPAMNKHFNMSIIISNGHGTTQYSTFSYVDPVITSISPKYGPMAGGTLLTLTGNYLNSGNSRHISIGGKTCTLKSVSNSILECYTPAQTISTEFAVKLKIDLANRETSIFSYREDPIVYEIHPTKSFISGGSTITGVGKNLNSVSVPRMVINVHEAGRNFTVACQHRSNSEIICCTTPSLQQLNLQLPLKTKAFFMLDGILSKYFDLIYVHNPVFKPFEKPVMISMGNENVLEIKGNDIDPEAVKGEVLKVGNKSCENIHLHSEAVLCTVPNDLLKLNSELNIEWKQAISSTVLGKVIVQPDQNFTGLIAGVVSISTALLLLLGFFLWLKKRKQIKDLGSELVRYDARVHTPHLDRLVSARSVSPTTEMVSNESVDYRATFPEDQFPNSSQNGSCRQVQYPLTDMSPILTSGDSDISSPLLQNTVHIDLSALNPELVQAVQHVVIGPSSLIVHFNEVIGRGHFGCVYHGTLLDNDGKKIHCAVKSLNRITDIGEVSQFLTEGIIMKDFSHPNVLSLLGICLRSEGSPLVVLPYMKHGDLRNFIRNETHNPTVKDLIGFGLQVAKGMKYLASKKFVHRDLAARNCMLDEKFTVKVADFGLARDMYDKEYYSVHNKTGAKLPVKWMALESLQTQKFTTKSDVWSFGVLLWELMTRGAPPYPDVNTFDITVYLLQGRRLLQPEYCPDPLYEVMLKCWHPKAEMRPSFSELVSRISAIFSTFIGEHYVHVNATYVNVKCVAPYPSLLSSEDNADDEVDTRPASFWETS

SMILES | Ki [µM]
Nc1ncc(-c2ccc(CN3CCCC3)cc2)cc1-c1nnnn1-c1cc(F)ccc1F [I-A-594] | 0.1 to 1
COC(=O)C(C)NC(=O)Nc1cccc(-c2cnc(N)c(-c3nnnn3-c3cccc(F)c3F)c2)c1 (centres unmarked) [I-A-327] | 0.1 to 1
Nc1ncc(-c2ccc(O)c(F)c2)cc1-c1nnnn1-c1cccc(F)c1F [I-A-295] | ≤ 0.1
Cc1c(Cl)cccc1-n1nnnc1-c1cc(-c2ccc(CN(C)C)cc2)cnc1N [I-A-578] | 0.1 to 1
CN(C)c1ccc(-c2cnc(N)c(-c3nnnn3-c3cccc(F)c3F)c2)cc1 [I-A-234] | ≤ 0.1
COc1ccc(-c2cnc(N)c(-c3nnnn3-c3cccc(F)c3F)c2)cc1OC [I-A-309] | ≤ 0.1
CCNC(=O)Nc1nc2cc(F)c(-c3cnc(N)c(-c4nnnn4-c4cccc(F)c4F)n3)cc2[nH]1 [I-A-53] | 0.1 to 1
COC(=O)c1ccc(-c2cnc(N)c(-c3nnnn3-c3cccc(F)c3F)c2)cc1 [I-A-316] | 0.1 to 1
CC(C)c1cccc(-c2cnc(N)c(-c3nnnn3-c3cccc(F)c3F)c2)c1 [I-A-236] | 0.1 to 1
Nc1ncc(-c2ccc(NC(=O)c3cccs3)cc2)cc1-c1nnnn1-c1cccc(F)c1F [I-A-161] | 0.1 to 1
CCNC(=O)Nc1nc2cc(-c3cnc(N)c(-c4nnnn4-c4cccc(F)c4F)c3)c(F)cc2[nH]1 [I-A-140] | 0.1 to 1
CNc1ccc(-c2cnc(N)c(-c3nnnn3-c3cccc(F)c3F)c2)cc1C#N [I-A-341] | ≤ 0.1
CS(=O)(=O)Nc1ccc(-c2cnc(N)c(-c3nnnn3-c3cccc(F)c3F)c2)cc1 [I-A-353] | 0.1 to 1
Nc1ncc(C2=CCNCC2)cc1-c1nnnn1-c1cccc(F)c1F [I-A-525] | 0.1 to 1
CN(C)Cc1ccc(-c2cnc(N)c(-c3nnnn3-c3cccc(F)c3F)c2)cc1 [I-A-63] | ≤ 0.1
Nc1ncc(-c2cccc3c2OC(F)(F)O3)cc1-c1nnnn1-c1cccc(F)c1F [I-A-310] | 0.1 to 1
COC[C@H]1CCCN1Cc1ccc(-c2cnc(N)c(-c3nnnn3-c3cccc(F)c3F)c2)cc1 [I-A-264] | ≤ 0.1
Nc1ncc(C2=CCN(C(=O)C3CCOCC3)CC2)cc1-c1nnnn1-c1cccc(F)c1F [I-A-521] | ≤ 0.1
COc1ccncc1-c1cnc(N)c(-c2nncn2-c2cccc(F)c2F)c1 [I-A-110] | 0.1 to 1
Nc1ncc(C2=CCN(C(=O)CC3CC3)CC2)cc1-c1nnnn1-c1cccc(F)c1F [I-A-524] | ≤ 0.1
CC(=O)Nc1cccc(-c2cnc(N)c(-c3nnnn3-c3c(F)cccc3F)c2)c1 [I-A-610] | 0.1 to 1
CC(C)(C)NC(=O)Nc1cccc(-c2cnc(N)c(-c3nnnn3-c3cccc(F)c3F)c2)c1 [I-A-328] | ≤ 0.1
CCN(C)Cc1ccc(-c2cnc(N)c(-c3nnnn3-c3cccc(F)c3F)c2)cc1 [I-A-149] | ≤ 0.1
CN(C)CCCN(C)Cc1ccc(-c2cnc(N)c(-c3nnnn3-c3cccc(Cl)c3Cl)c2)cc1 [I-A-95] | ≤ 0.1
CC(=O)Nc1ccc(-c2cnc(N)c(-c3nnnn3-c3cc(Cl)ccc3C)c2)cc1 [I-A-576] | 0.1 to 1
Nc1ncc(-c2ccc(CN3CCOCC3)cc2)nc1-c1nnc(O)n1-c1cccc(F)c1F [I-A-16] | 0.1 to 1
CCOC(=O)N1CCc2cc(-c3cnc(N)c(-c4nnnn4-c4cccc(F)c4F)c3)sc2CC1 [I-A-480] | ≤ 0.1

Second part, the compound after the results:

Ki [µM] | SMILES
≤ 0.1 | Nc1ncc(-c2cnn(C3CCCNCC3)c2)cc1-c1nnnn1-c1cccc(Cl)c1F (centres unmarked) [I-A-651]
0.1 to 1 | Nc1ncc(-c2cnn(C3CCNCC3)c2)cc1-c1nc2cccnc2n1-c1cccc(Cl)c1F [I-D-15]
0.1 to 1 | CC(=O)Nc1cccc(-c2cnc(N)c(-c3nnnn3-c3cc(F)ccc3Cl)c2)c1 [I-A-569]
≤ 0.1 | Nc1ncc(-c2ccc(C3CCNCC3)s2)cc1-c1nnnn1-c1cccc(Cl)c1F [I-A-532]
≤ 0.1 | Nc1ncc(-c2ccc(F)cc2)cc1-c1nnnn1-c1cccc(F)c1F [I-A-223]
≤ 0.1 | Nc1ncc(-c2cccc(CN3CCCC3)c2)cc1-c1nnnn1-c1cccc(Cl)c1Cl [I-A-109]
0.1 to 1 | Nc1ncc(-c2ccc(N3CCCC3)nc2)cc1-c1nncn1-c1cccc(F)c1F [I-A-40]
0.1 to 1 | CC(=O)Nc1cccc(-c2cnc(N)c(-c3nnnn3-c3cccc(Cl)c3C)c2)c1 [I-A-565]
≤ 0.1 | Nc1ncc(-c2ccc(OCCN3CCCC3)cc2)cc1-c1nnnn1-c1cccc(F)c1F [I-A-346]
0.1 to 1 | Nc1ncc(-c2cccnc2)cc1-c1nnsc1-c1cccc(Cl)c1Cl [I-C-1]
≤ 0.1 | C[C@@H]1CC[C@@H](C)N1Cc1ccc(-c2cnc(N)c(-c3nnnn3-c3cccc(F)c3F)c2)cc1 [I-A-267]
0.1 to 1 | Nc1ncc(-c2cccnc2)cc1-c1nnnn1-c1cccc(Cl)c1F [I-A-557]
≤ 0.1 | Nc1ncc(-c2cccc(N3CCNCC3)c2)cc1-c1nccn1-c1cccc(Cl)c1Cl [I-A-401]
≤ 0.1 | CC(=O)N1CCC(n2cc(-c3cnc(N)c(-c4nnnn4-c4cccc(Cl)c4F)c3)cn2)CC1 [I-A-399]
0.1 to 1 | Cc1nnc(-c2cc(-c3ccc(CN4CCCC4)cc3)cnc2N)n1-c1cccc(F)c1Cl [I-A-388]
≤ 0.1 | Nc1ncc(-c2cnn(CC3CCNC3)c2)cc1-c1nnnn1-c1cccc(F)c1F (centres unmarked) [I-A-501]
≤ 0.1 | Cc1nc(-c2cc(-c3cccnc3)cnc2N)c(-c2cccc(Cl)c2Cl)o1 [I-C-6]
≤ 0.1 | Nc1ncc(-c2cnn(C3CNC3)c2)cc1-c1nnnn1-c1cccc(F)c1F [I-A-426]

Ki [µM] | SMILES
0.1 to 1 | Nc1ncc(-c2ccc(CO)cc2)cc1-c1nncn1-c1cccc(Cl)c1Cl [I-A-78]
≤ 0.1 | Nc1ncc(-c2ccc3ncccc3c2)cc1-c1nnnn1-c1cccc(F)c1F [I-A-321]
≤ 0.1 | Nc1ncc(-c2ccn(C3CCNCC3)c2)cc1-c1nnnn1-c1cccc(F)c1F [I-A-464]
≤ 0.1 | Nc1ncc(-c2cnn(C3CCNCC3)c2)cc1-c1nnnn1-c1cc(Cl)ccc1F [I-A-635]
≤ 0.1 | CC(=O)Nc1cccc(-c2cnc(N)c(-c3nnnn3-c3cccc(Cl)c3F)c2)c1 [I-A-344]
0.1 to 1 | Nc1ncc(-c2cnn(CC(=O)N3CCCC3)c2)cc1-c1nnnn1-c1cccc(F)c1F [I-A-364]
0.1 to 1 | Nc1ncc(-c2ccc(NC(=O)NC3CCCC3)cc2)cc1-c1nnnn1-c1cccc(F)c1F [I-A-333]
0.1 to 1 | COc1ccc(F)cc1-n1nnnc1-c1cc(-c2cnn(C3CCNCC3)c2)cnc1N [I-A-633]
≤ 0.1 | Nc1ncc(-c2cnn(C[C@@H]3CCCN3)c2)cc1-c1nnnn1-c1cccc(F)c1F [I-A-500]
0.1 to 1 | Nc1ncc(-c2cccc(Cl)c2)cc1-c1nnnn1-c1cccc(F)c1F [I-A-225]
≤ 0.1 | Nc1ncc(-c2cn(C3CCOCC3)nn2)cc1-c1nnnn1-c1cccc(F)c1F [I-A-485]
≤ 0.1 | Nc1ncc(-c2ccc(CN3CCCC3)cc2)cc1-c1nc2cnccc2n1-c1cccc(F)c1F [I-D-3]
≤ 0.1 | NC(=O)[C@@H]1CCCN1Cc1ccc(-c2cnc(N)c(-c3nnnn3-c3cccc(Cl)c3Cl)c2)cc1 [I-A-121]
≤ 0.1 | Nc1ncc(C2=CCN(C(=O)c3cccnc3)CC2)cc1-c1nnnn1-c1cccc(F)c1F [I-A-507]
0.1 to 1 | Nc1ncc(-c2cnn(C3CCNCC3)c2)cc1-c1nnnn1-c1cc(F)ccc1Cl [I-A-637]
≤ 0.1 | CCN1CCC[C@@H](n2cc(-c3cnc(N)c(-c4nnnn4-c4cccc(Cl)c4Cl)c3)cn2)C1 [I-A-499]
≤ 0.1 | CN(C)C(=O)N1CCC(n2cc(-c3cnc(N)c(-c4nnnn4-c4cccc(Cl)c4F)c3)cn2)CC1 [I-A-445]
